Results taken from ChEMBL document CHEMBL2163222 (J Med Chem, 2012).
The source made the active and inactive calls. No cut-off for these calls is given here.

Key:
[1] = Cytostatic activity in human U373 cells at 31 uM assessed global growth ratio after 72 hrs by quantitative video microscopy; assay type: functional, U-373MG ATCC
[2] = Growth inhibition of human OE21 cells after 3 days by MTT assay; assay type: functional, cell-based; conditions: OE21, 72 h
[3] = target: Dual specificity tyrosine-phosphorylation-regulated kinase 1A (Homo sapiens, UniProt Q13627); experiment: Inhibition of DYRK1A kinase using RBER-CHKtide substrate by radiometric protein kinase assay
Hs 683 [4] = experiment: cells; conditions: Homo sapiens, Hs 683, 72 h
T98G = experiment: cells; conditions: Homo sapiens, 72 h
cells = conditions: Homo sapiens, U373 MG, 72 h
OE33 = experiment: Growth inhibition of human OE33 cells after 3 days by MTT assay; assay type: functional, cell-based; conditions: OE33, 72 h
[5] = Solubility of compound at pH 7.4; assay type: physicochemical; conditions: buffer
[6] = Cytostatic activity in human U373 cells at 18 uM assessed global growth ratio after 72 hrs by quantitative video microscopy; assay type: functional, U-373MG ATCC
[7] = Cytostatic activity in human U373 cells at 64 uM assessed global growth ratio after 72 hrs by quantitative video microscopy; assay type: functional, U-373MG ATCC
[8] = Cytostatic activity in human U373 cells at 24 uM assessed global growth ratio after 72 hrs by quantitative video microscopy; assay type: functional, U-373MG ATCC
[9] = Inhibition of eIF2 protein expression in human Hs683 cells at 5 uM after 4 hrs by Western blotting method; assay type: functional, cell-based; conditions: Hs 683
[10] = target: Tyrosine-protein kinase Fer (Homo sapiens) (UniProt P16591); experiment: Inhibition of FER assessed as residual enzyme activity at 10 uM by radiometric protein kinase assay
[11] = target: Myosin light chain kinase, smooth muscle (Homo sapiens) (UniProt Q15746); experiment: Inhibition of MYLK assessed as residual enzyme activity at 10 uM by radiometric protein kinase assay
Mus musculus = species: Mus musculus; experiment: Toxicity in mouse assessed as drug tolerance; assay type: organism-based; conditions: in vivo
[12] = target: Calcium/calmodulin-dependent protein kinase type II subunit alpha (Homo sapiens) (UniProt Q9UQM7); experiment: Inhibition of CAMK2A assessed as residual enzyme activity at 10 uM by radiometric protein kinase assay
[13] = Inhibition of eIF2 protein expression in human U373 cells at 1 uM after 4 hrs by Western blotting method; assay type: functional, cell-based; conditions: U-373MG ATCC
[14] = target: Tyrosine-protein kinase CSK (Homo sapiens) (UniProt P41240); experiment: Inhibition of CSK assessed as residual enzyme activity at 10 uM by radiometric protein kinase assay
U-373MG ATCC = experiment: Inhibition of eIF2 activity in human U373 cells at 1 uM after 4 hrs by Western blotting method; assay type: functional, cell-based
[15] = target: Myosin light chain kinase 2, skeletal/cardiac muscle (Homo sapiens) (UniProt Q9H1R3); experiment: Inhibition of MYLK2 assessed as residual enzyme activity at 10 uM by radiometric protein kinase assay
[16] = target: Serine/threonine-protein kinase 17A (Homo sapiens) (UniProt Q9UEE5); experiment: Inhibition of STK17A assessed as residual enzyme activity at 10 uM by radiometric protein kinase assay
[17] = target: TGF-beta receptor type-1 (Homo sapiens) (UniProt P36897); experiment: Inhibition of TGFB-R1 assessed as residual enzyme activity at 10 uM by radiometric protein kinase assay
[18] = target: Calcium/calmodulin-dependent protein kinase type II subunit delta (Homo sapiens) (UniProt Q13557); experiment: Inhibition of CAMK2D assessed as residual enzyme activity at 10 uM by radiometric protein kinase assay
[19] = target: MAP kinase-interacting serine/threonine-protein kinase 1 (Homo sapiens) (UniProt Q9BUB5); experiment: Inhibition of MKNK1 assessed as residual enzyme activity at 10 uM by radiometric protein kinase assay
Hs 683 [20] = experiment: Inhibition of eIF2 activity in human Hs683 cells at 5 uM after 4 hrs by Western blotting method; assay type: functional, cell-based
[21] = target: TGF-beta receptor type-2 (Homo sapiens) (UniProt P37173); experiment: Inhibition of TGFB-R2 assessed as residual enzyme activity at 10 uM by radiometric protein kinase assay
[22] = Cytostatic activity in human U373 cells at 0.9 uM assessed global growth ratio after 72 hrs by quantitative video microscopy; assay type: functional, U-373MG ATCC
[23] = target: Tyrosine-protein kinase Tec (Homo sapiens) (UniProt P42680); experiment: Inhibition of TEC assessed as residual enzyme activity at 10 uM by radiometric protein kinase assay

Calcium/calmodulin-dependent protein kinase type II subunit delta (Homo sapiens), sequence (Q13557 whole entry): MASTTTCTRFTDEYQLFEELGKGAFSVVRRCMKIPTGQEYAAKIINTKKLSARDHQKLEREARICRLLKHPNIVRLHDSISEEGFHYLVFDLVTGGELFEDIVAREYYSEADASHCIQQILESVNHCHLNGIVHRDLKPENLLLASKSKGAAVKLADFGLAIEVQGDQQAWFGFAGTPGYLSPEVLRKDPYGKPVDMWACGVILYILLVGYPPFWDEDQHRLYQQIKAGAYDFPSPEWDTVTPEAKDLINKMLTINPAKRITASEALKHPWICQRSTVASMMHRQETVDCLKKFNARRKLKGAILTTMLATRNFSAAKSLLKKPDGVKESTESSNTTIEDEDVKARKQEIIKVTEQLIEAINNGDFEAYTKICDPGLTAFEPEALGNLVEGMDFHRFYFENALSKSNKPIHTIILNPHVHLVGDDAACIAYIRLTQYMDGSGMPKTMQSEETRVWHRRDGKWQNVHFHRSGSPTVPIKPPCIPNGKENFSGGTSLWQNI
MAP kinase-interacting serine/threonine-protein kinase 1 (Homo sapiens), sequence (Q9BUB5 whole entry, looked up): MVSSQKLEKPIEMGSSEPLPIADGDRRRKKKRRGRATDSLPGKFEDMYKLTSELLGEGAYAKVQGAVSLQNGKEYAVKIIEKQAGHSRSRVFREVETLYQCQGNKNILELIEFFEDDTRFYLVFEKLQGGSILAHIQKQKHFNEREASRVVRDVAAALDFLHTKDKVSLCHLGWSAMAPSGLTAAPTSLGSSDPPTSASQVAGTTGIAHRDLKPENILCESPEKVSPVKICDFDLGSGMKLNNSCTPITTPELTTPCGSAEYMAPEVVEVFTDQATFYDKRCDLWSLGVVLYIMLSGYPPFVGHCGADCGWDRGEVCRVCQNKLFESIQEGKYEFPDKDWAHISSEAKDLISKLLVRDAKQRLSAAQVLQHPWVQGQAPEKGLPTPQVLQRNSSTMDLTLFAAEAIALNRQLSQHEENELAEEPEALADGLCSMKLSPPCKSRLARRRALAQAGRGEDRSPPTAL
Myosin light chain kinase, smooth muscle (Homo sapiens), sequence (Q15746 whole entry): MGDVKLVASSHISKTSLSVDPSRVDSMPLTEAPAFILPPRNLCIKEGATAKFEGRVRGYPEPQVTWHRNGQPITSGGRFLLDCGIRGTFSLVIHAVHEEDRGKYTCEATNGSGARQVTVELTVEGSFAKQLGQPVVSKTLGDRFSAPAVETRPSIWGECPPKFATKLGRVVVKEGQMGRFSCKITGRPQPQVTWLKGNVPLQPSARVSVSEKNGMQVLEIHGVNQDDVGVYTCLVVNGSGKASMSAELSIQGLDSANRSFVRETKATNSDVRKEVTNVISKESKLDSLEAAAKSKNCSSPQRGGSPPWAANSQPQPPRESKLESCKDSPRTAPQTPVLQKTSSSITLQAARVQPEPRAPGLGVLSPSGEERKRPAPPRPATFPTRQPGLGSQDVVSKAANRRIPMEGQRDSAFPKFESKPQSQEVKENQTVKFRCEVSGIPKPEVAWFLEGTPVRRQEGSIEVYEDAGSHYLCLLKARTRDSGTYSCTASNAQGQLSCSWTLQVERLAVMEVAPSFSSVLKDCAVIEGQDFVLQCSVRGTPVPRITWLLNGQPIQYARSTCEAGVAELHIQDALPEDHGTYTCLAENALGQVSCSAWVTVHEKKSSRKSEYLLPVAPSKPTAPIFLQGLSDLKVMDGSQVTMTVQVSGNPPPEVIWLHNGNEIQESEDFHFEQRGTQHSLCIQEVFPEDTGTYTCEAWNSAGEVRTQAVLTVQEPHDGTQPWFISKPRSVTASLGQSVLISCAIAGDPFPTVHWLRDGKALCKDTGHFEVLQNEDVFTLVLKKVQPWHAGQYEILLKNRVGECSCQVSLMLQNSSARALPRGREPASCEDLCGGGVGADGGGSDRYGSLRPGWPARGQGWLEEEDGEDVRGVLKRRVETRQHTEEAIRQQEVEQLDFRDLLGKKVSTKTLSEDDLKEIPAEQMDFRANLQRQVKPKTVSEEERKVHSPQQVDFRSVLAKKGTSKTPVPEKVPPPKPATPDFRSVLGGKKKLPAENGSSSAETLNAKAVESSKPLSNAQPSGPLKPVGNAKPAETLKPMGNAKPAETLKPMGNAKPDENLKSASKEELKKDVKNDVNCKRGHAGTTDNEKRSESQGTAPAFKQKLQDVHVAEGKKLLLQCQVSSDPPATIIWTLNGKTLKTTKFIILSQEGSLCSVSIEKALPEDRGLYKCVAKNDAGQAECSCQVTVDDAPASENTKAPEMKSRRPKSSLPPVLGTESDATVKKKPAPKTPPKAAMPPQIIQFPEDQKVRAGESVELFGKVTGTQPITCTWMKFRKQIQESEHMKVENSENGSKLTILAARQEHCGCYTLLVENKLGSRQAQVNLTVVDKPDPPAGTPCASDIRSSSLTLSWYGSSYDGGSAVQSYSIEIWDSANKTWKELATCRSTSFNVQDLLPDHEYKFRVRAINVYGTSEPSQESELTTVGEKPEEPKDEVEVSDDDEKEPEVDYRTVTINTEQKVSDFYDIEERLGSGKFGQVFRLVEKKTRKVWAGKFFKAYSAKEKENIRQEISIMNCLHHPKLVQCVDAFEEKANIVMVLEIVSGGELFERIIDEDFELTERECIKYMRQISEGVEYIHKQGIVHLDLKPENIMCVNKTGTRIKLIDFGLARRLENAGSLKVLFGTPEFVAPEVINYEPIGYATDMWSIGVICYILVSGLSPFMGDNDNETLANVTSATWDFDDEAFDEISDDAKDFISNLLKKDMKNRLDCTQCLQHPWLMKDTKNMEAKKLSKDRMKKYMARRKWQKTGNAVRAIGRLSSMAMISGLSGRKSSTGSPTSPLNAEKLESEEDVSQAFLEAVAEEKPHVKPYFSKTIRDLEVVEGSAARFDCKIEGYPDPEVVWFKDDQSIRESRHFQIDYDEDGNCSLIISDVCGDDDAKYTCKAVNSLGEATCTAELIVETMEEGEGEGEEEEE
Serine/threonine-protein kinase 17A (Homo sapiens), sequence (Q9UEE5 whole entry): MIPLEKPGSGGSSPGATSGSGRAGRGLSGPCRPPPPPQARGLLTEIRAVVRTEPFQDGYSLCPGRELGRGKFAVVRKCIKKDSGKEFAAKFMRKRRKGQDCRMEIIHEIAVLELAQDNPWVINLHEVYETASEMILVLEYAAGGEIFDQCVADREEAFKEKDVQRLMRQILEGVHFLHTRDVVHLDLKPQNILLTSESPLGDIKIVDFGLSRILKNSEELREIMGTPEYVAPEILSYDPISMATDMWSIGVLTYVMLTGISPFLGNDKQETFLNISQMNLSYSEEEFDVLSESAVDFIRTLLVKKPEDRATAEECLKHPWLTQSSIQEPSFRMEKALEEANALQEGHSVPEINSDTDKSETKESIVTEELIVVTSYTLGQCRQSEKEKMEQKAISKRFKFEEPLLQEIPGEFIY
Myosin light chain kinase 2, skeletal/cardiac muscle (Homo sapiens), sequence (Q9H1R3 whole entry): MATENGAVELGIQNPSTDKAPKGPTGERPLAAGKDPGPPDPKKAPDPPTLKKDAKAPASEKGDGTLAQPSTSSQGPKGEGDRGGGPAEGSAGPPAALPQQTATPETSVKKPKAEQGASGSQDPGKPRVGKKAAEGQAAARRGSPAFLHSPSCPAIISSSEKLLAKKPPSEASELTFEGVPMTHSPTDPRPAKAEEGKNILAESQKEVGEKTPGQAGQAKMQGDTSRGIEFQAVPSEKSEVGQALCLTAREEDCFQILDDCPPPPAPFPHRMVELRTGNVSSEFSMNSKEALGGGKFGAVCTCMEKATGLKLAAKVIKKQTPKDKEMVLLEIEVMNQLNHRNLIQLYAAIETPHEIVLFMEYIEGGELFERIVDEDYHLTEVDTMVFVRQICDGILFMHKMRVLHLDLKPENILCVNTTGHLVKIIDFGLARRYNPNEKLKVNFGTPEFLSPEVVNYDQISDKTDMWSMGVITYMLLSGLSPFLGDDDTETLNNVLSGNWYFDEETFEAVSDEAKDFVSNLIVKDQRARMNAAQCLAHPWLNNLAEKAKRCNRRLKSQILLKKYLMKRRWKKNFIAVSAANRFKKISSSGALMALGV
Calcium/calmodulin-dependent protein kinase type II subunit alpha (Homo sapiens), sequence (Q9UQM7 whole entry): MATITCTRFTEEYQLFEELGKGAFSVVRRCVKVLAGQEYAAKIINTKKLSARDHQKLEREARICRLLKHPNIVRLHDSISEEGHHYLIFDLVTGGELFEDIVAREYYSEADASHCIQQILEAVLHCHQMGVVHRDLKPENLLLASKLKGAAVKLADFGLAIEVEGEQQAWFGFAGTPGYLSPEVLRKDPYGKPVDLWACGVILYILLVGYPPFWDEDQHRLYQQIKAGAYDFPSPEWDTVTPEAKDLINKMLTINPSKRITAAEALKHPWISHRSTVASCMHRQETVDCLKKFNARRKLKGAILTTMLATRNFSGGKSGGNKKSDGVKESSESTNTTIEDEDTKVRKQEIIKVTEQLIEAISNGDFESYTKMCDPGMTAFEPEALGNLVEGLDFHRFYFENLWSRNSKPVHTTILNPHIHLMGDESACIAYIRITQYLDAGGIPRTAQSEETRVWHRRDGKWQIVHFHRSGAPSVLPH
TGF-beta receptor type-1 (Homo sapiens), sequence (P36897 whole entry): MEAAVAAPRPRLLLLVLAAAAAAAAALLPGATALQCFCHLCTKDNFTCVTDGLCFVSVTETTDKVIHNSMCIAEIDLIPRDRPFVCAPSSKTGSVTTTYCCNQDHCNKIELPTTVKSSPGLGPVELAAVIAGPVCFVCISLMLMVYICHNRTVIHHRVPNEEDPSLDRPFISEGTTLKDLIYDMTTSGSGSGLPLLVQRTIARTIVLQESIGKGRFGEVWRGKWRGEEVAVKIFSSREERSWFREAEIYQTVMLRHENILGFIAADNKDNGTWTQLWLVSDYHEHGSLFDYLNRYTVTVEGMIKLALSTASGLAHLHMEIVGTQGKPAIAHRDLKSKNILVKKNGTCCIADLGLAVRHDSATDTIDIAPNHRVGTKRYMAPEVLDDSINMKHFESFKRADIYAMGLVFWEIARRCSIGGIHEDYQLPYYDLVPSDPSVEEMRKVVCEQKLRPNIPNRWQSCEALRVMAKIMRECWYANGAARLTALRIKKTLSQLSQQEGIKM

IC50 [3]	IC50 (Hs 683 [4])	IC50 (T98G)	IC50 (cells)	Compound	IC50 [2]	IC50 (OE33)	further results
> 10 µM	30 µM	32 µM	31 µM	Cc1nccc2c3ccc(OCC4CCCCC4)cc3n(CC3CCCCC3)c12	17 µM	15 µM	Ratio [1]: 0.17
–	33 µM	36 µM	18 µM	Cc1nccc2c3ccc(OCc4ccccc4)cc3n(Cc3ccccc3)c12	28 µM	40 µM	solubility ([5]; read-out: solubility): < 3 µM; Ratio [6]: 0.3
10 µM	30 µM	29 µM	24 µM	Cc1nccc2c1[nH]c1cc(OCc3cccnc3)ccc12	28 µM	31 µM	Ratio [8]: 0.29
–	4.5 µM	1.9 µM	0.9 µM	Cc1c2c(cc[n+]1Cc1ccc(F)cc1)c1ccc(OCc3cccc(F)c3)cc1n2Cc1cccc(F)c1.[Br-]	2.9 µM	3.4 µM	inhibition [9]: Active; Activity [10]: 7%; Activity [11]: 2%; Activity (Mus musculus): Non-toxic; solubility [5]: 53 µM; Activity [12]: 1%; inhibition [13]: Active; Activity [14]: 10%; inhibition (U-373MG ATCC): Active; Activity [15]: 7%; Activity [16]: < 1%; Activity [17]: 6%; Activity [18]: 2%; Activity [19]: 10%; inhibition (Hs 683 [20]): Active; Activity [21]: 6%; Ratio [22]: 0.53; Activity [23]: 8%

Compound	IC50 [3]	IC50 (Hs 683 [4])	IC50 (T98G)	IC50 (cells)	IC50 [2]	IC50 (OE33)	further results
COCCOc1ccc2c(c1)[nH]c1c(C)nccc12	16 µM	53 µM	61 µM	64 µM	53 µM	66 µM	Ratio [7]: 0.23
